Measured values reported in patent US10770169B2, “Method of providing a treatment to a subject based on a dynamic pathway map” (THE REGENTS OF THE UNIVERSITY OF CALIFORNIA, priority 2010, dated 2020).
Like-named read-outs stand apart in the source and are kept apart here.

System: panel of 55 breast cancer cell lines
Assay: Cell growth inhibition assay (Cell Titer Glo, 72 h, 9 doses; GI50, TGI, LC50)
Format: cell-based, human
Conditions: Homo sapiens, read-out: GI50 (converted)

CC[C@@]1(O)C(=O)OCc2c1cc1n(c2=O)Cc2cc3c(CN(C)C)c(O)ccc3nc2-1 [Topotecan]
GI50 (AU565, AU565 cell line, censored GI50 values): 0.0186 µM | GI50 (AU565, cell line AU565): 0.0186 µM | GI50 (BT-474, BT474 cell line, censored GI50 values): 2.51 µM | GI50 (BT-474, cell line BT474): 2.51 µM | GI50 (BT-483, BT483 cell line, censored GI50 values): 0.0162 µM | GI50 (BT-483, cell line BT483): 0.0162 µM | GI50 (CAMA-1, CAMA1 cell line, censored GI50 values): 0.398 µM | GI50 (CAMA-1, cell line CAMA1): 0.398 µM | GI50 (HCC38, HCC38 cell line, censored GI50 values): 0.00372 µM | GI50 (HCC38, cell line HCC38): 0.00372 µM | GI50 (HCC70, HCC70 cell line, censored GI50 values): 19.1 µM | GI50 (HCC70, cell line HCC70): 19.1 µM | GI50 (HCC202, HCC202 cell line, censored GI50 values): 0.759 µM | GI50 (HCC202, cell line HCC202): 0.759 µM | GI50 (HCC1143, HCC1143 cell line, censored GI50 values): 0.257 µM | GI50 (HCC1143, cell line HCC1143): 0.257 µM | GI50 (HCC1187, HCC1187 cell line, censored GI50 values): 0.309 µM | GI50 (HCC1187, cell line HCC1187): 0.309 µM | GI50 (HCC1395, HCC1395 cell line, censored GI50 values): 0.0151 µM | GI50 (HCC1395, cell line HCC1395): 0.0151 µM | GI50 (HCC1419, HCC1419 cell line, censored GI50 values): 0.363 µM | GI50 (HCC1419, cell line HCC1419): 0.363 µM | GI50 (HCC1428, HCC1428 cell line, censored GI50 values): 0.447 µM | GI50 (HCC1428, cell line HCC1428): 0.447 µM | GI50 (HCC1500, HCC1500 cell line, censored GI50 values): 0.0145 µM | GI50 (HCC1500, cell line HCC1500): 0.0145 µM | GI50 (HCC1806, HCC1806 cell line, censored GI50 values): 0.0204 µM | GI50 (HCC1806, cell line HCC1806): 0.0204 µM | GI50 (HCC1954, HCC1954 cell line, censored GI50 values): 0.302 µM | GI50 (HCC1954, cell line HCC1954): 0.302 µM | GI50 (HCC2185 cell line, censored GI50 values): 0.0407 µM | GI50 (HCC3153 cell line, censored GI50 values): 0.209 µM | GI50 (LY2 cell line, censored GI50 values): 0.257 µM | GI50 (MCF7, MCF7 cell line, censored GI50 values): 1.32 µM | GI50 (MCF7, cell line MCF7): 1.32 µM | GI50 (MDA-MB-134-VI, MDAMB134VI cell line, censored GI50 values): 0.115 µM | GI50 (MDA-MB-157, MDAMB157 cell line, censored GI50 values): 0.398 µM | GI50 (MDA-MB-157, cell line MDAMB157): 0.398 µM | GI50 (MDA-MB-175-VII, MDAMB175VII cell line, censored GI50 values): 2.88 µM | GI50 (MDA-MB-231, MDAMB231 cell line, censored GI50 values): 1.17 µM | GI50 (MDA-MB-231, cell line MDAMB231): 1.17 µM | GI50 (MDA-MB-361, MDAMB361 cell line, censored GI50 values): 0.525 µM | GI50 (MDA-MB-361, cell line MDAMB361): 0.525 µM | GI50 (MDA-MB-415, MDAMB415 cell line, censored GI50 values): 0.191 µM | GI50 (MDA-MB-415, cell line MDAMB415): 0.191 µM | GI50 (MDA-MB-436, MDAMB436 cell line, censored GI50 values): 0.0302 µM | GI50 (MDA-MB-436, cell line MDAMB436): 0.0302 µM | GI50 (MDA-MB-453, MDAMB453 cell line, censored GI50 values): 0.0851 µM | GI50 (MDA-MB-453, cell line MDAMB453): 0.0851 µM | GI50 (MDA-MB-468, MDAMB468 cell line, censored GI50 values): 0.0457 µM | GI50 (MDA-MB-468, cell line MDAMB468): 0.0457 µM | GI50 (SK-BR-3, SKBR3 cell line, censored GI50 values): 0.0112 µM | GI50 (SK-BR-3, cell line SKBR3): 0.0112 µM | GI50 (SUM44PE cell line, censored GI50 values): 0.372 µM | GI50 (SUM52PE, SUM52PE cell line, censored GI50 values): 0.00832 µM | GI50 (SUM52PE, cell line SUM52PE): 0.00832 µM | GI50 (SUM185PE, SUM185PE cell line, censored GI50 values): 0.0631 µM | GI50 (SUM185PE, cell line SUM185PE): 0.0631 µM | GI50 (SUM1315MO2, SUM1315MO2 cell line, censored GI50 values): 0.00832 µM | GI50 (SUM-159-PT, SUM159PT cell line, censored GI50 values): 0.741 µM | GI50 (SUM-159-PT, cell line SUM159PT): 0.741 µM | GI50 (UACC-812, UACC812 cell line, censored GI50 values): 0.0603 µM | GI50 (UACC-812, cell line UACC812): 0.0603 µM | GI50 (UACC-893, UACC893 cell line, censored GI50 values): 0.347 µM | GI50 (UACC-893, cell line UACC893): 0.347 µM | GI50 (ZR-75-1, ZR751 cell line, censored GI50 values): 0.0407 µM | GI50 (ZR-75-1, cell line ZR751): 0.0407 µM | GI50 (ZR-75B, ZR75B cell line, censored GI50 values): 0.0631 µM | GI50 (ZR-75B, cell line ZR75B): 0.0631 µM | GI50 (cell line HCC2185): 0.0407 µM | GI50 (cell line HCC3153): 0.209 µM | GI50 (cell line LY2): 0.257 µM | GI50 (cell line MDAMB134V): 0.115 µM | GI50 (cell line MDAMB175V): 2.88 µM | GI50 (cell line SUM44PE): 0.372 µM | GI50 (cell line SUM1315MO): 0.00832 µM
